Measured values reported in paper PMC8646129 (Biochemistry and Biophysics Reports, 2021).

Target: T1, TMEM16B (Mus musculus, UniProt Q8CFW1)
T1 sequence (Q8CFW1 1-1002): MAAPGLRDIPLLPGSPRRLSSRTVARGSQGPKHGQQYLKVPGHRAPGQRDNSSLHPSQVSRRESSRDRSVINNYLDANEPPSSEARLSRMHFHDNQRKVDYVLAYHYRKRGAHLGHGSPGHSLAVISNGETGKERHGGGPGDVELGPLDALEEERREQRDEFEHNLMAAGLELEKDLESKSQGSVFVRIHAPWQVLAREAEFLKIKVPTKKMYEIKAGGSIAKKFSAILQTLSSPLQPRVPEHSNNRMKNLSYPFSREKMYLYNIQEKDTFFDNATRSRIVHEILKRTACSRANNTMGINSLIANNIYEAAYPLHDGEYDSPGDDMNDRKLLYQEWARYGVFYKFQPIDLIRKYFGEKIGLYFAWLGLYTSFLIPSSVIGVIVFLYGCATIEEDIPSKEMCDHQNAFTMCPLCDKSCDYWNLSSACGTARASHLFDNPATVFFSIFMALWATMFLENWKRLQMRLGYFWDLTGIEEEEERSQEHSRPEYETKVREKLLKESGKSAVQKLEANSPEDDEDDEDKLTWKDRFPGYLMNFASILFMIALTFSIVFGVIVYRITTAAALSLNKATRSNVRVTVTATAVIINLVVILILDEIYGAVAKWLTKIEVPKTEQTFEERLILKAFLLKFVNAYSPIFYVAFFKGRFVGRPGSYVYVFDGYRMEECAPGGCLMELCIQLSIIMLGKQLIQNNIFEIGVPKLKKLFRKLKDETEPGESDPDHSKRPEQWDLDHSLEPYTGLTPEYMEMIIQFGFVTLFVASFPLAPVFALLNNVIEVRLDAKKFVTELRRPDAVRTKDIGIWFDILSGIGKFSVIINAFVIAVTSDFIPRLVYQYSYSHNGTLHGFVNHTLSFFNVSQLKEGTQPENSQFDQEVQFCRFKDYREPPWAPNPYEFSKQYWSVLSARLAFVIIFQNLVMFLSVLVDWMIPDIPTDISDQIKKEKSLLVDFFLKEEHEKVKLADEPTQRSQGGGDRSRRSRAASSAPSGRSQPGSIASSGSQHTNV
Assay: whole-cell patch clamp of transfected HEK293 cells
Type: cell-based

EC50: 24.2 nM
SMILES: O=C(NC1(c2ccccc2)CC1)c1c(CN2CCC(N3CCCCC3)CC2)c(-c2cccc(C(F)(F)F)c2)nc2cc(Br)ccc12 [GSKb, GSK2193874]
